Data as given in patent US4537772A, “Enhancing absorption of drugs from gastrointestinal tract using acylcarnitines” (Merck & Co., Inc., priority 1984, dated 1985).

Key:
[1] = in vivo; conditions: rat
Procedure: (§1) Effect of palmitoylcarnitine chloride on the rectal absorption of drug entities. Experiments were performed with rats wherein each animal received an aqueous microenema applied to the rectal cavity. […] Blood levels were monitored and the amount of drug absorbed calculated against intravenous administration and expressed as percent bioavailability.
(§2) Concentration dependence of palmitoylcarnitine effect on rectal absorption of sodium cefoxitin, a β-lactam antibiotic. […] Blood samples were collected and assayed for sodium cefoxitin. The amount of drug absorbed is expressed as percent bioavailability as compared to intravenous administration.
(§3) Effect of various carnitine esters on rectal absorption of sodium cefoxitin, a β-lactam antibiotic, and cyclo(N-Ala-Tyr-D-Trp-Lys-Val-Phe)acetate, a polypeptide. […] Blood samples were collected and sodium cefoxitin or cyclo(N-AlA-TyR-D-Trp-Lys-Val-Phe)acetate assayed. The amount of drug absorbed is expressed as percent bioavailability versus intravenous administration.
(§4) Importance of carnitine-palmitoyl ester linkage in absorption promoting effects on rectal sodium cefoxitin absorption. […] Blood was collected and sodium cefoxitin measured. Absorption of sodium cefoxitin is expressed as percent bioavailability versus intravenous administration.

[2] = in vivo; conditions: rat; remark: listed apart in the source
Procedure: Effect of palmitoylcarnitine chloride on small intestinal absorption of polypeptides. Experiments were performed with rats wherein each animal received an aqueous solution applied to the duodenal region. […] Blood levels were monitored and the amount of polypeptide absorbed calculated against intravenous administration and expressed as percent bioavailability.

[3] = rat, in vivo
Procedure: as §1, §2, §3, §4

[4] = Rectal absorption of target drug from aqueous microenema, percent bioavailability versus intravenous administration; conditions: carnitine without acyl ester
Procedure: as §1, §2, §3, §4

Row | Compound | Sodium Cefoxitin Percent Bioavailability (mean ± SD) ([3]; pH 6) [%] | Percent Bioavailability (mean ± SD) Control [3] [%] | Percent Bioavailability (mean ± SD) with Palmitoylcarnitine-Cl [3] [%] | further results
1 | CC(C)[C@@H]1NC(=O)[C@H](CCCCN)NC(=O)[C@@H](Cc2c[nH]c3ccccc23)NC(=O)[C@H](Cc2ccc(O)cc2)NC(=O)[C@H](C)N(C)C(=O)[C@H](Cc2ccccc2)NC1=O [#-363,586, cyclo(N--Me--Ala--Tyr--DTrp--Lys--Val--Phe)acetate] |  |  |  | bioavailability ([1]; 0.1 mg, pH 6, Percent Bioavailability (mean ± SD) Cyclo(N-Ala-Tyr-D-Trp-Lys-Val-Phe)acetate): 7 ± 3.5%; bioavailability ([1]; Percent Bioavailability (mean ± SD) Control): 7 ± 3.5%; bioavailability ([1]; Percent Bioavailability (mean ± SD) with Palmitoylcarnitine-Cl): 100 ± 28.2%; bioavailability [2]: 1%
2 | Nc1ccn([C@@H]2O[C@H](CO)[C@@H](O)[C@@H]2O)c(=O)n1 [Cytarabine] |  | 0.5 ± 0.1 | 9 ± 0.6 | 
3 | Cn1c(=O)c2[nH]cnc2n(C)c1=O [Theophylline] |  | 75 ± 3.3 | 75 ± 2.6 | 

Further lines, with some results ahead:

Row | Sodium Cefoxitin Percent Bioavailability (mean ± SD) ([3]; pH 6) [%] | Percent Bioavailability (mean ± SD) Control [3] [%] | Percent Bioavailability (mean ± SD) with Palmitoylcarnitine-Cl [3] [%] | Compound | further results
4 | 1 ± 0.6 |  |  | C[N+](C)(C)CC(O)CC(=O)[O-] (stereo not shown) [Carnitine] | absorption promoting effect of carnitine alone [4]: no effect
5 | 1 ± 0.8 |  |  | CCCCCCCCCCCCCCCC(=O)O [Palmitic acid] | 
6 | 2 ± 1.1 | 2 ± 1.1 | 68 ± 7.2 | CO[C@@]1(NC(=O)Cc2cccs2)C(=O)N2C(C(=O)O)=C(COC(N)=O)CS[C@@H]21 [Sodium cefoxitin] | Percent Bioavailability (mean ± SD) Sodium Cefoxitin ([3]; pH 6): 2 ± 1.1%; Sodium Cefoxitin Percent Bioavailability mean ± SD ([3]; pH 6): 2 ± 1.1%
